Assay results as given in patent US5153308A, “S-sulfonated calcitonin derivatives” (Teijin Limited, priority 1988, dated 1992).
*1 amine or outer side, *2 acyl side, *3 side chain or, on linkers, in order; H or OH if unused. Where a SMILES comes first, the peptide text is derived from it. [ ]: non-standard residue; d: D form. X1 = O=C([C@H](CSS(=O)(=O)O)N[*:1])[*:2]

What was measured:
[1] = Stability test in frozen state (residual amount by reverse HPLC); type: physicochemical; conditions: -80° C., 5 months, compared to native calcitonin-I
Description: First, 50 μg each of the diS-sulfonated salmon calcitonin-I and salmon calcitonin-I were separately dissolved in 100 μl of 2.5 mM citrate (pH 2.8) buffer, and the solutions were frozen and stored at -80° C. After 5 months, the frozen samples were thawed, and residual diS-sulfonated salmon calcitonin-I and salmon calcitonin-I were measured by reverse HPLC.

[2] = Stability test in liquid form (residual amount by reverse HPLC); type: physicochemical; conditions: 37° C., 2 weeks, compared to native salmon calcitonin-I
Description: First, 50 μg each of the diS-sulfonated salmon calcitonin-I and salmon calcitonin-I were separately dissolved in 100 μl of 50 mM Tris-Hcl buffer solution (pH 7.2), and the solutions were stored at 37° C. After 2 weeks, the residual diS-sulfonated salmon calcitonin-I and salmon calcitonin-I were measured by reverse HPLC.

- Stability in the frozen state (in words) [1]: remarkably stable
- Stability in a solution (in words) [2]: remarkably stable
Structure (SMILES): CC(C)C[C@H](NC(=O)[C@H](CCCCN)NC(=O)CNC(=O)[C@H](CC(C)C)NC(=O)[C@@H](NC(=O)[C@H](CSS(=O)(=O)O)NC(=O)[C@@H](NC(=O)[C@H](CO)NC(=O)[C@H](CC(C)C)NC(=O)[C@H](CC(N)=O)NC(=O)[C@H](CO)NC(=O)[C@@H](N)CSS(=O)(=O)O)[C@@H](C)O)C(C)C)C(=O)N[C@@H](CO)C(=O)N[C@@H](CCC(N)=O)C(=O)N[C@@H](CCC(=O)O)C(=O)N[C@@H](CC(C)C)C(=O)N[C@@H](Cc1c[nH]cn1)C(=O)N[C@@H](CCCCN)C(=O)N[C@@H](CC(C)C)C(=O)N[C@@H](CCC(N)=O)C(=O)N[C@H](C(=O)N[C@@H](Cc1ccc(O)cc1)C(=O)N1CCC[C@H]1C(=O)N[C@@H](CCCNC(=N)N)C(=O)N[C@H](C(=O)N[C@@H](CC(N)=O)C(=O)N[C@H](C(=O)NCC(=O)N[C@@H](CO)C(=O)NCC(=O)N[C@H](C(=O)N1CCC[C@H]1C(N)=O)[C@@H](C)O)[C@@H](C)O)[C@@H](C)O)[C@@H](C)O [diS-sulfonated salmon calcitonin-I] (H-[X1]SNLST[X1]VLGKLSQELHKLQTYPRTNTGSGTP-NH2)
